4 compounds from PubChem BioAssay (NCI) can be followed below.

The structures appear in SMILES notation.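 Where inhibition never reached the appropriate level, the endpoint shown equals the highest concentration tested. Otherwise, values were interpolated linearly from a five-concentration, 48-hour dose response in 96-well plates. At the GI50, growth is halved. TGI is the concentration that stops growth completely.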

Common to all, as to test: DTP human tumour cell line panel, 48 h
Assay [1] deals with A549 NSCLC.
Assay [2] relates to CAKI-1 renal.
Assay [3] has as its system COLO 205 colon.
Assay [4] has as its system HCT-15 colon.
In assay [5] the test system is HOP-92 NSCLC.
Assay [6] relates to IGROV1 ovarian.
For assay [7], the system named is MALME-3M melanoma.
Assay [8] has as its system RPMI-8226 leukemia.
Assay [9] has as its system SF-268 CNS.
The test system of assay [10] is SK-MEL-5 melanoma.

Regarding `Cc1c(C)c2c(c(C)c1NC(=O)/C=C\C(=O)O)CCC(C)(CCCC(C)CCCC(C)CCCC(C)C)O2` (stereo not given), the GI50 in assay [1] was 1.79 µM; in assay [2], 1.49 µM; in assay [3] it was 1.75 µM; in [4], 1.83 µM; in assay [5], 1.1 µM; in assay [6], 1.94 µM. The GI50 in assay [7] is 1.7 µM; in [8], 2.17 µM; in [9], 1.67 µM; in assay [10], 1.73 µM. For the same compound, the TGI in assay [1] is 3.62 µM; in assay [2], 3.12 µM; in assay [3], 3.54 µM; in assay [4] it was 4.65 µM; in assay [5] it was 2.35 µM; in [6], 4.88 µM. For the same compound, the TGI in assay [7] is 3.16 µM; in assay [8], 13.8 µM; in [9], 3.08 µM; in assay [10], 3.15 µM.

Consider `Nc1ncnc2c1ncn2C1OC(CSC(F)(F)F)C(O)C1O` (stereo not given), for which the TGI in [1], in assay [2], in assay [3], in assay [4], in assay [5] and in assay [6] was above 100 µM in each case. Further, the TGI in assay [7], in assay [8], in assay [9] and in [10] was above 100 µM in each case.

Regarding `O=C1c2cccc3cc([N+](=O)[O-])cc(c23)C(=O)N1NC1=NCCN1`, the TGI in [1], in assay [2], in [3], in assay [4], in assay [5] and in [6] was above 100 µM throughout. Also, the TGI in assay [7], in [8], in assay [9] and in assay [10] was above 100 µM each time.

Take `NC1=NC(c2ccc(Cl)cc2)N(c2ccc(S(=O)(=O)Nc3ncccn3)cc2)C(N)=N1` (stereo not given): the TGI in assay [1], in assay [2], in [3], in [4], in assay [5] and in assay [6] was above 100 µM in each case. The TGI in assay [7], in [8], in assay [9] and in assay [10] was above 100 µM throughout.

Usually GI50 stands for the concentration that inhibits growth by half. As a reminder, the TGI is the concentration at which net growth stops. Higher therefore signals lower sensitivity of the cells.
